Laboratory results as given in patent US20240277658A1, “NLRP3 ACTIVATORS FOR USE IN THE TREATMENT OF INFECTIOUS DISEASES OR CANCER BY ACTIVATING NLRP3 INFLAMMASOME” (ALBERT-LUDWIGS-UNIVERSITÄT FREIBURG, priority 2020, published 2024).
Values joined by “and” are separate entries in the source; they are usually repeats but may differ in a detail not shown here. Identical values can stand only once. Like-named read-outs stand apart in the source and are kept apart here.

Key:
NLRP3 inflammasome = molecular target: T1, NLRP3 inflammasome (Mus musculus, UniProt Q8R4B8); experiment: IL-1β release from LPS-primed BMDCs (ELISA) as readout of NLRP3 inflammasome activation; assay type: cell-based
T1 construct: endogenous in cells; host or cells: primary mouse bone marrow-derived dendritic cells (BMDCs), LPS-primed
Procedure, shortened: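 NLRP3 inflammasome activation was read out as IL-1β released into the supernatant, measured by ELISA. Murine BMDCs were primed with LPS (50 ng ml^−1, 3 hours), then incubated with compounds for 3 hours, with each condition run in three technical replicates. Nigericin at 5 μM acted as the positive control activator, and IL-1β release was also expressed as a percentage of that control.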

BMDCs = experiment: LDH release (lytic cell death, pyroptosis) from LPS-primed BMDCs; assay type: cell-based, mouse; settings: for Average (% positive control): LDH release; for cytotoxicity at 25 µM / cytotoxicity at 50 µM / cytotoxicity at 100 µM: Mus musculus, BMDC
Procedure, shortened: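 Mouse BMDCs (7-9 days differentiated, GM-CSF) primed with 50 ng ml^−1 E. coli K12 LPS for 3 hours, then exposed 3 hours to compounds (50 μM unless indicated) or activators (nigericin 5 μM; R837, CL097 100 μM). Lytic death measured as LDH release by colorimetric assay, triplicate wells.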

[1] = 25 μM, individual replicate values, EN11 series table
[2] = 50 μM, individual replicate values, EN11 series table
[3] = 100 μM, individual replicate values
[4] = IL-1β, 25 μM, positive control EN22 25 μM
[5] = IL-1β, 50 μM, positive control EN22 25 μM
[6] = IL-1β, 100 μM, positive control EN22 25 μM
[7] = 25 μM, positive control EN22 25 μM
[8] = 50 μM, positive control EN22 25 μM
[9] = 100 μM, positive control EN22 25 μM
[10] = 25 μM, EN11 series table, read-out: Average LDH release (% of max.)
[11] = 50 μM, EN11 series table, read-out: Average LDH release (% of max.)
[12] = 100 μM, individual replicate values, read-out: LDH release (% of max.)
[13] = 100 μM, read-out: Average LDH release (% of max.)
[14] = IL-1β release, compound 50 μM, positive control nigericin 5 μM
[15] = compound 50 μM, LPS-primed BMDCs
[16] = single replicates, compound 50 μM, LPS-primed BMDCs
[17] = compound 50 μM, positive control nigericin 5 μM
[18] = compound 50 μM, LPS-primed BMDCs, read-out: Average LDH release (% of max.)
[19] = single replicates, compound 50 μM, LPS-primed BMDCs, read-out: LDH release (% of max.)

T1 sequence (Q8R4B8 whole entry): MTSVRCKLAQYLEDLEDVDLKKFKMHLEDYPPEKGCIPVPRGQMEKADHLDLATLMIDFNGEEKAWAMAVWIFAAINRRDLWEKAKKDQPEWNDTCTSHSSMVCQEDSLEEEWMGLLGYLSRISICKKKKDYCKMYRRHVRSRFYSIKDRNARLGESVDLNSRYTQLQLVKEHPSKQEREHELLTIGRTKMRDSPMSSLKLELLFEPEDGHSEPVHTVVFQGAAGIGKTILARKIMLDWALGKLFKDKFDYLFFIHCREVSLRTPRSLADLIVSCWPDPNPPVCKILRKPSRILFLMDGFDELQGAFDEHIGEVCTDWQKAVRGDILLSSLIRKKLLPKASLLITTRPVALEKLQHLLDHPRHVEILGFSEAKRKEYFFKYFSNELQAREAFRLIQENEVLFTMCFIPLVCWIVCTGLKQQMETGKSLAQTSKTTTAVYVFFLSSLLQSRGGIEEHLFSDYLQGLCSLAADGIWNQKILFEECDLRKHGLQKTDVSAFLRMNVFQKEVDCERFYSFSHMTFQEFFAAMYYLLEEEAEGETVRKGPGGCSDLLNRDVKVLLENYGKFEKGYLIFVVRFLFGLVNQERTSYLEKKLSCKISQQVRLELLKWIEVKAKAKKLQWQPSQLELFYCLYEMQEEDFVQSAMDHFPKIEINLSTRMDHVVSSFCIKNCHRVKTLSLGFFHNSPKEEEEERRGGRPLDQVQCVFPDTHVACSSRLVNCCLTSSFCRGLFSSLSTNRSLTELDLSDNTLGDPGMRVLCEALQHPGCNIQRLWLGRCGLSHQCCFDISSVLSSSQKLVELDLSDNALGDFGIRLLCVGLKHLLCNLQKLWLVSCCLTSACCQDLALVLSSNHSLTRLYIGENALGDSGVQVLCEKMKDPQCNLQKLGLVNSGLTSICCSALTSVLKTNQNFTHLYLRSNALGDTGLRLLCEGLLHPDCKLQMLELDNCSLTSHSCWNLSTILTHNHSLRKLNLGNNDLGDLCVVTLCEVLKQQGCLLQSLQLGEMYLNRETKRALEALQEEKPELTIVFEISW

SMILES	Average (% positive control) (NLRP3 inflammasome; [14])	Average IL-1β (NLRP3 inflammasome; [15]) [ng/mL]	IL-1β (NLRP3 inflammasome; [16])	Average (% positive control) (BMDCs; [17])	cytotoxicity at 50 µM (BMDCs; [18]) [%]	cytotoxicity at 50 µM (BMDCs; [19]) [%]	also measured
O=C(NCc1ccccc1)NCc1ccc2ncccc2c1 [EN11-11, 3-benzyl-1-[(quinolin-6-yl)methyl]urea]							Average IL-1β (NLRP3 inflammasome; 25 μM, EN11 series table): 0.000 ng/mL; IL-1β (NLRP3 inflammasome; [1]): 0.000 ng/mL; Average IL-1β (NLRP3 inflammasome; 50 μM, EN11 series table): 0.014 ng/mL; IL-1β (NLRP3 inflammasome; [2]): 0.021 ng/mL and 0.022 ng/mL and 0.000 ng/mL; Average IL-1β (NLRP3 inflammasome; 100 μM): 0.011 ng/mL; IL-1β (NLRP3 inflammasome; [3]): 0.012 ng/mL and 0.021 ng/mL and 0.000 ng/mL; Average (% positive control) (NLRP3 inflammasome; [4]): 0.000 % positive control; Average (% positive control) (NLRP3 inflammasome; [5]): 0.975 % positive control; Average (% positive control) (NLRP3 inflammasome; [6]): 0.761 % positive control; Average (% positive control) (BMDCs; [7]): 8.741 % positive control; Average (% positive control) (BMDCs; [8]): 8.257 % positive control; Average (% positive control) (BMDCs; [9]): 10.723 % positive control; cytotoxicity at 25 µM (BMDCs; [10]): 4.45%; cytotoxicity at 50 µM (BMDCs; [11]): 4.2%; cytotoxicity at 100 µM (BMDCs; [12]): 5.91%; cytotoxicity at 100 µM (BMDCs; [13]): 5.45%
O=C(Nc1ccccc1)Nc1ccc(NC(=O)c2ccco2)cc1 [L01.064, N-{4-[(phenylcarbamo-yl)amino]phenyl}furan-2-carboxamide]	1.014	0.073	0.065 ng/mL and 0.054 ng/mL and 0.100 ng/mL	11.958	8.75	8.96	
CC(C)CC(NC(=O)Nc1cccc(N2CCNC2=O)c1)c1nc(-c2nnc[nH]2)no1 (stereo not shown) [L01.010, 3-{3-methyl-1-[3-(4H-1,2,4-triazol-3-yl)-1,2,4-oxadiazol-5-yl]butyl}-1-[3-(2-oxoimidazolidin-1-yl)phenyl]urea]	0.822	0.059	0.065 ng/mL and 0.059 ng/mL and 0.053 ng/mL	7.822	5.72	5.64	
O=C(NCc1nc(-c2cccnc2)no1)Nc1ccc([N+](=O)[O-])cc1Cl [L01.042, 1-(2-chloro-4-nitrophen-yl)-3-{[3-(pyridin-3-yl)-1,2,4-oxadiazol-5-yl]-methyl}urea]	0.826	0.059	0.060 ng/mL and 0.069 ng/mL and 0.048 ng/mL	9.993	7.31	7.09	
CCOc1ccc(NC(=O)NCc2nc(-c3cccc(OC)c3)no2)cc1OCC [L01.013, 1-(3,4-diethoxyphenyl)-3-{[3-(3-methoxyphen-yl)-1,2,4-oxadiazol-5-yl]methyl}urea]	1.677	0.120	0.118 ng/mL and 0.126 ng/mL and 0.117 ng/mL	10.303	7.54	8.75	
COc1cccc(NC(=O)NCc2nc(Cc3ccccc3)no2)c1 [L01.067, 3-[(3-benzyl-1,2,4-oxadiazol-5-yl)methyl]-1-(3-methoxyphenyl)-urea]	0.942	0.068	0.064 ng/mL and 0.069 ng/mL and 0.070 ng/mL	9.336	6.83	6.48	
O=C(NCc1ccccc1)Nc1ccc2ncccc2c1 [EN11-16, 1-benzyl-3-(quinolin-6-yl)urea]							Average IL-1β (NLRP3 inflammasome; 25 μM, EN11 series table): 0.008 ng/mL; IL-1β (NLRP3 inflammasome; [1]): 0.010 ng/mL and 0.014 ng/mL and 0.000 ng/mL; Average IL-1β (NLRP3 inflammasome; 50 μM, EN11 series table): 0.060 ng/mL; IL-1β (NLRP3 inflammasome; [2]): 0.068 ng/mL and 0.054 ng/mL and 0.058 ng/mL; Average IL-1β (NLRP3 inflammasome; 100 μM): 0.325 ng/mL; IL-1β (NLRP3 inflammasome; [3]): 0.334 ng/mL and 0.324 ng/mL and 0.315 ng/mL; Average (% positive control) (NLRP3 inflammasome; [4]): 0.555 % positive control; Average (% positive control) (NLRP3 inflammasome; [5]): 4.074 % positive control; Average (% positive control) (NLRP3 inflammasome; [6]): 22.016 % positive control; Average (% positive control) (BMDCs; [7]): 15.222 % positive control; Average (% positive control) (BMDCs; [8]): 16.245 % positive control; Average (% positive control) (BMDCs; [9]): 24.607 % positive control; cytotoxicity at 25 µM (BMDCs; [10]): 7.74%; cytotoxicity at 25 µM (BMDCs; 25 μM, individual replicate values, EN11 series table, read-out: LDH release (% of max.)): 7.87%; cytotoxicity at 50 µM (BMDCs; [11]): 8.26%; cytotoxicity at 50 µM (BMDCs; 50 μM, individual replicate values, EN11 series table, read-out: LDH release (% of max.)): 8.33%; cytotoxicity at 100 µM (BMDCs; [12]): 14.2%; cytotoxicity at 100 µM (BMDCs; [13]): 12.5%
CC(C)Oc1ccccc1NC(=O)NCc1nc(C2CC2)no1 [L01.083, 3-[(3-cyclopropyl-1,2,4-oxadiazol-5-yl)-methyl]-1-[2-(propan-2-yloxy)phenyl]urea]	1.180	0.085	0.080 ng/mL and 0.077 ng/mL and 0.097 ng/mL	8.649	6.33	6.8	

Continued, in another order:

Average (% positive control) (NLRP3 inflammasome; [14])	Average IL-1β (NLRP3 inflammasome; [15]) [ng/mL]	SMILES	IL-1β (NLRP3 inflammasome; [16])	Average (% positive control) (BMDCs; [17])	cytotoxicity at 50 µM (BMDCs; [18]) [%]	cytotoxicity at 50 µM (BMDCs; [19]) [%]	also measured
10.857	0.778	O=C(Nc1ccccc1)Nc1ccc(NC(=O)C(F)F)cc1 [L01.016, 2,2-difluoro-N-{4-[(phenylcarbamoyl)-amino]phenyl}acet-amide]	0.755 ng/mL and 0.723 ng/mL and 0.857 ng/mL	17.216	12.6	11.6	
1.368	0.098	Cc1cccc(NC(=O)Nc2ccccc2)c1 [L01.077, 3-(3-methylphenyl)-1-phenylurea]	0.067 ng/mL and 0.165 ng/mL and 0.062 ng/mL	7.980	5.84	5.28	
4.638	0.332	O=C(Nc1ccccc1)Nc1ccc(C(=O)N2CCC2)cc1 [L01.008, 1-[4-(azetidine-1-carbon-yl)phenyl]-3-phenylurea]	0.361 ng/mL and 0.324 ng/mL and 0.313 ng/mL	13.046	9.54	11	
0.920	0.066	CNC(=O)NCc1cccc(NC(=O)Nc2ccccc2)c1 [L01.132, 3-(3-{[(methylcarbamo-yl)amino]methyl}phen-yl)-1-phenylurea]	0.062 ng/mL and 0.066 ng/mL and 0.069 ng/mL	8.791	6.43	6.46	
3.211	0.230	CS(=O)(=O)c1cc(NC(=O)Nc2ccccc2)ccc1Cl [L01.035, 3-(4-chloro-3-methane-sulfonylphenyl)-1-phenylurea]	0.321 ng/mL and 0.189 ng/mL and 0.181 ng/mL	11.044	8.08	8.46	
1.568	0.112	O=C(Nc1ccccc1)Nc1cccc(N2CCOC2=O)c1 [L01.045, 1-[3-(2-oxo-1,3-oxazol-idin-3-yl)phenyl]-3-phenylurea]	0.103 ng/mL and 0.116 ng/mL and 0.118 ng/mL	7.094	5.19	5.98	
2.800	0.201	O=C(Nc1ccccc1)Nc1cccc(OC(F)F)c1 [L01.120, 3-[3-(difluoromethoxy)-phenyl]-1-phenylurea]	0.207 ng/mL and 0.200 ng/mL and 0.196 ng/mL	33.449	24.5	25	
36.599	2.624	CC1Oc2ccc(NC(=O)Nc3ccccc3)cc2NC1=O (stereo not shown) [L01.110, 3-(2-methyl-3-oxo-3,4-dihydro-2H-1,4-benzox-azin-6-yl)-1-phenylurea]	2.505 ng/mL and 2.943 ng/mL and 2.423 ng/mL	46.015	33.7	34.8	
0.973	0.070	O=C(Nc1ccccc1)Nc1cccc([N+](=O)[O-])c1 [L01.108, 3-(3-nitrophenyl)-1-phenylurea]	0.076 ng/mL and 0.061 ng/mL and 0.072 ng/mL	14.362	10.5	10.9	
